Results on 20 compounds are retold here after patent US9938281B2 (Merck Sharp & Dohme Corp., priority 2012, dated 2018).

Assay [1] concerns the target T1, PI3K-delta (Homo sapiens, UniProt O00329).
T1 construct: purchased Upstate; Millipore 14-604
The assay can be described thus: HTRF PI3K biochemical assay, delta isoform. The note with it: form screened (neutral or TFA salt) given, read-out: PI3Kdelta IC50. A general note: Time-resolved FRET reads energy transfer from a long-lived donor to a nearby acceptor.

The target in assay [2] is T2, PI3K-alpha (Homo sapiens, UniProt P42336).
T2 construct: purchased Upstate; Millipore 14-602
T2 sequence (P42336 whole entry): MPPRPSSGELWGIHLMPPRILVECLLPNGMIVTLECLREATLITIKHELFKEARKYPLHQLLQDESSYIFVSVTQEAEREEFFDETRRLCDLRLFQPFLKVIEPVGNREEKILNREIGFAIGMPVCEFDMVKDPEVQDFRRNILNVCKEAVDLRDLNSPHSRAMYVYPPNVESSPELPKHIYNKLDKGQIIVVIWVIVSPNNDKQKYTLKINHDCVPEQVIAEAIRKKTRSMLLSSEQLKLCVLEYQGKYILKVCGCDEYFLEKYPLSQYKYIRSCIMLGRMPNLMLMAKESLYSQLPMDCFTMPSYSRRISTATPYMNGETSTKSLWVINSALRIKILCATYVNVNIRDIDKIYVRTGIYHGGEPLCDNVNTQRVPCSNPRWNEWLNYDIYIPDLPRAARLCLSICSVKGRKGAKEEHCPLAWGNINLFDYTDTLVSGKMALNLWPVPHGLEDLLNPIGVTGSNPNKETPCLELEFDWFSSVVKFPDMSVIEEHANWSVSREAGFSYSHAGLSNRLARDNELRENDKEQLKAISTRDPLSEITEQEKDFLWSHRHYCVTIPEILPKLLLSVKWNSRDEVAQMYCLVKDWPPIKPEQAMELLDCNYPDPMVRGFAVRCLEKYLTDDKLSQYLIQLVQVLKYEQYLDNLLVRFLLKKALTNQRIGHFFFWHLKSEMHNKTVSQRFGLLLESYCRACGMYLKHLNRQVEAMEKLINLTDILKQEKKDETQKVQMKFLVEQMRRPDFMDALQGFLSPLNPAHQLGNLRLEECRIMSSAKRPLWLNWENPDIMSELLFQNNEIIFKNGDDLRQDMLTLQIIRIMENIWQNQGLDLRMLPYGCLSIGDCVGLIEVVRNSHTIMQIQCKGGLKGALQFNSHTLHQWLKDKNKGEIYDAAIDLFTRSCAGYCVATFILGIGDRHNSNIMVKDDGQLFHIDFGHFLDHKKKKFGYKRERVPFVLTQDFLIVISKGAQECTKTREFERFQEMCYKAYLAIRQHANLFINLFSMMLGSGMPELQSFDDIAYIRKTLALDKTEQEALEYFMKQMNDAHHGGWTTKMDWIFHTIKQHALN
T2 sequence (P27986 whole entry partner): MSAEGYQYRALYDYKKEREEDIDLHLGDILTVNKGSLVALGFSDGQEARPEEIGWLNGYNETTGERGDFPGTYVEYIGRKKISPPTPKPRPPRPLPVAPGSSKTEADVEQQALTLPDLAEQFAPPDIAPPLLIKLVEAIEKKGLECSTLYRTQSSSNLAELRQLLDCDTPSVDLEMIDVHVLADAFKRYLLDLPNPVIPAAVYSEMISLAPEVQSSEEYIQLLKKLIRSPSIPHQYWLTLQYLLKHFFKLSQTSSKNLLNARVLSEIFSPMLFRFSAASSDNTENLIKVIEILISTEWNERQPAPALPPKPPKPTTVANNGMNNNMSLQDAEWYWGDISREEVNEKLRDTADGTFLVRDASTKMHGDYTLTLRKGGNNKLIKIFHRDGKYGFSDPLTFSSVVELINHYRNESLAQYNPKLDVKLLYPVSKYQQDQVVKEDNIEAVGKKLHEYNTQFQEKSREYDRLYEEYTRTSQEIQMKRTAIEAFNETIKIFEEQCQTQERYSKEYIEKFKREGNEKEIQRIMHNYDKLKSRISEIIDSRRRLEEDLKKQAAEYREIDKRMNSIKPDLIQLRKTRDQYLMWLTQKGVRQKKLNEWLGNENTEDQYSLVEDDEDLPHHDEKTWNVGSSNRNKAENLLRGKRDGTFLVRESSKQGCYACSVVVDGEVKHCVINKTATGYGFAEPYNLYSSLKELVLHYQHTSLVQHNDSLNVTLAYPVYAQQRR
The assay can be described thus: HTRF PI3K biochemical assay, alpha isoform. The note with it: ratio PI3K-alpha IC50 value / PI3K-delta IC50 value.

T1 sequence (O00329 whole entry): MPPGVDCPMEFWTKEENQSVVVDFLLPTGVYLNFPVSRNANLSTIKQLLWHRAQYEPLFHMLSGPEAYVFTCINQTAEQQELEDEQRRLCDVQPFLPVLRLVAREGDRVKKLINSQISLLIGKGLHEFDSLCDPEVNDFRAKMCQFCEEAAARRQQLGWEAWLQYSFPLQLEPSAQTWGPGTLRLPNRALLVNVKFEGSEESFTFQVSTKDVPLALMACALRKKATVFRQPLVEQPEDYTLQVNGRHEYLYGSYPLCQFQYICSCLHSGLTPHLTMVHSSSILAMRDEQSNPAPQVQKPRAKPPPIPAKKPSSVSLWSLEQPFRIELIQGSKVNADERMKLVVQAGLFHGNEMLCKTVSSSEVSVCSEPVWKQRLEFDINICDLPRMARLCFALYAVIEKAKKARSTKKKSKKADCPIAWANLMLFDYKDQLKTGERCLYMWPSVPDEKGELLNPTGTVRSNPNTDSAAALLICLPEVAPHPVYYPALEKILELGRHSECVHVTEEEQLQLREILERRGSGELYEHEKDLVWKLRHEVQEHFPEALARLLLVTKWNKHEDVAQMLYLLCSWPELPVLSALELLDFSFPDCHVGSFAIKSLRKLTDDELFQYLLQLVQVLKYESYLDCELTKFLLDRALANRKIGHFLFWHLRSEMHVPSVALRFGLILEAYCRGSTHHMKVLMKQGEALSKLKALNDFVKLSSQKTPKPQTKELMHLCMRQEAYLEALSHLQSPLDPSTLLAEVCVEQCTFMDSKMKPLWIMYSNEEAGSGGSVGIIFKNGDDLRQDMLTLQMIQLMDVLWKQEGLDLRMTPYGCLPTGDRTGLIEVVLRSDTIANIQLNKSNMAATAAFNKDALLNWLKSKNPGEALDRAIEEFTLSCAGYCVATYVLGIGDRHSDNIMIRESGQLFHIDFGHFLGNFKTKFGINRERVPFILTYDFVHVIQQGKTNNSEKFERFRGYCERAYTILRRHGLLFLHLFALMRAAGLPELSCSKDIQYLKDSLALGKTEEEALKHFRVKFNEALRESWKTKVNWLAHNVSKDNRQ
T1 sequence (P27986 whole entry partner): as the sequence (P27986 whole entry partner) above

As to `CCn1c(-c2ccc(OC)nc2)nc2c(N[C@H]3CCN(C(=O)C4CCOCC4)C3)ncnc21` [Compound 3A-3, 9-ethyl-8-(6-methoxypyridin-3-yl)-N-[(3S)-1-(tetrahydro-2H-pyran-4-ylcarbonyl)pyrrolidin-3-yl]-9H-purin-6-amine], the IC50 in assay [1] is less than 1 nM. The “Selectivity versus PI3Kalpha” value in assay [2] is recorded as greater than 10.
The corresponding values for `CCn1c(-c2cnc(CO)nc2)nc2c(N[C@H]3CCN(C(=O)C4CC4)C3)ncnc21` [Compound 3-39, [5-(6-{[(3S)-1-(cyclopropylcarbonyl)pyrrolidin-3-yl]amino}-9-ethyl-9H-purin-8-yl)pyrimidin-2-yl]methanol] are 3.4 nM and greater than 10.
As to `CCC(=O)N1CC[C@@H](Nc2ncnc3c2nc(-c2cnn(CC)c2C)n3C)C1` [Compound 2-1, 8-(1-ethyl-5-methyl-1H-pyrazol-4-yl)-9-methyl-N-[(3R)-1-propanoylpyrrolidin-3-yl]-9H-purin-6-amine], the IC50 in assay [1] came to 32 nM. Moreover, in assay [2], the “Selectivity versus PI3Kalpha” value is greater than 10.
For `CCn1c(-c2cnc(C)nc2)nc2c(N[C@H]3C[C@H](C(N)=O)N(c4ccccn4)C3)ncnc21` [Compound 15-11, (4S)-4-{[9-ethyl-8-(2-methylpyrimidin-5-yl)-9H-purin-6-yl]amino}-1-pyridin-2-yl-D-prolinamide] the same measures were 7.7 nM and greater than 10.
For `CCn1c(-c2cnc(C)nc2)nc2c(N[C@H]3CCN(C(=O)NC(C)(C)C(=O)OC)C3)ncnc21` [Compound 12-24, methyl N-{[(3S)-3-{[9-ethyl-8-(2-methylpyrimidin-5-yl)-9H-purin-6-yl]amino}pyrrolidin-1-yl]carbonyl}-2-methylalaninate] the same measures were 1.9 nM and greater than 10.
The corresponding values for `CCn1c(C(F)F)nc2c(N[C@H]3CCN(C(=O)[C@H]4C[C@@H](OC)C4)C3)ncnc21` [Compound 7-18, 8-(difluoromethyl)-9-ethyl-N-{(3S)-1-[(cis-3-methoxycyclobutyl)carbonyl]pyrrolidin-3-yl}-9H-purin-6-amine] are 11 nM and greater than 10.
Take `CCn1c(-c2cnc3c(cnn3C)c2)nc2c(N[C@H]3CCN(C(=O)C4CC4)C3)ncnc21` [Compound 3-35, N-[(3S)-1-(cyclopropylcarbonyl)pyrrolidin-3-yl]-9-ethyl-8-(1-methyl-1H-pyrazolo[3,4-b]pyridin-5-yl)-9H-purin-6-amine]: the IC50 in assay [1] is less than 1 nM. In addition, the “Selectivity versus PI3Kalpha” value in assay [2] is reported as greater than 10.
Take `CCn1c(-c2cnc(C)nc2)nc2c(N[C@H]3CCN(C(=O)N4CCC4)C3)ncnc21` [Compound 12-9, N-[(3S)-1-(azetidin-1-ylcarbonyl)pyrrolidin-3-yl]-9-ethyl-8-(2-methylpyrimidin-5-yl)-9H-purin-6-amine]: the IC50 in assay [1] amounted to 1.4 nM. Also, the “Selectivity versus PI3Kalpha” value in assay [2] is greater than 10.
Turning to `CCn1c(C(=O)N[C@H](C)C2CC2)nc2c(N[C@H]3CCN(C(=O)C4CC4)C3)ncnc21` [Compound 6-13, 6-{[(3S)-1-(cyclopropylcarbonyl)pyrrolidin-3-yl]amino}-N-[(1R)-1-cyclopropylethyl]-9-ethyl-9H-purine-8-carboxamide], the IC50 in assay [1] turned out to be 12 nM. For the same compound, in assay [2], the “Selectivity versus PI3Kalpha” value is given as greater than 10.
The corresponding values for `CCn1c(-c2cnc(C)nc2)nc2c(N[C@H]3CCN(C(=O)C4(C#N)CCCC4)C3)ncnc21` [Compound 2-62, 1-{[(3S)-3-{[9-ethyl-8-(2-methylpyrimidin-5-yl)-9H-purin-6-yl]amino}pyrrolidin-1-yl]carbonyl}cyclopentanecarbo-nitrile] are 6 nM and greater than 10.
`CCC(=O)N1CC[C@H](Nc2ncnc3c2nc(-c2cnc(OC)c(C(F)(F)F)c2)n3C)C1` [Compound 3-7, (S)-1-(3-((8-(6-methoxy-5-(trifluoromethyl)pyridin-3-yl)-9-methyl-9H-purin-6-yl)amino)pyrrolidin-1-yl)propan-1-one]: in assay [1], the IC50 is 2.2 nM. The “Selectivity versus PI3Kalpha” value in assay [2] is greater than 10.
Regarding `CCn1c(-c2cnc(C)nc2)nc2c(N[C@H]3CCN(c4ncccc4C)C3)ncnc21` [Compound 4-10, 9-ethyl-N-[(3S)-1-(3-methylpyridin-2-yl)pyrrolidin-3-yl]-8-(2-methylpyrimidin-5-yl)-9H-purin-6-amine], the IC50 in assay [1] turned out to be 13 nM. For the same compound, the “Selectivity versus PI3Kalpha” value in assay [2] is listed as greater than 10.
Regarding `CCn1c(C(=O)N2CCCC2)nc2c(N[C@H]3CCN(C(=O)C4CC4)C3)ncnc21` [Compound 6-8, N-[(3S)-1-(cyclopropylcarbonyl)pyrrolidin-3-yl]-9-ethyl-8-(pyrrolidin-1-ylcarbonyl)-9H-purin-6-amine], the IC50 in assay [1] is 72 nM. Moreover, in assay [2], the “Selectivity versus PI3Kalpha” value is listed as greater than 10.
The corresponding values for `CCn1c(-c2cnc(C)nc2)nc2c(N[C@H]3CCN(C(=O)OCC(F)(F)F)C3)ncnc21` [Compound 13-1, 2,2,2-trifluoroethyl (3S)-3-{[9-ethyl-8-(2-methylpyrimidin-5-yl)-9H-purin-6-yl]amino}pyrrolidine-1-carboxylate] are 21 nM and greater than 10.
The corresponding values for `CCn1c(-c2cnc(C)nc2)nc2c(N[C@H]3CCN(C(=O)C4(O)CCCC4)C3)ncnc21` [Compound 2-58, 1-{[(3S)-3-{[9-ethyl-8-(2-methylpyrimidin-5-yl)-9H-purin-6-yl]amino}pyrrolidin-1-yl]carbonyl}cyclopentanol] are 22 nM and greater than 10.
In the case of `CCn1ncc(-c2nc3c(N(C)[C@H]4CCN(C(=O)OC(C)(C)C)C4)ncnc3n2C)c1C` [Compound 1-3, (S)-tert-butyl 3-((8-(1-ethyl-5-methyl-1H-pyrazol-4-yl)-9-methyl-9H-purin-6-yl)(methyl)amino)pyrrolidine-1-carboxylate], the IC50 in assay [1] stood at 98 nM. Moreover, the “Selectivity versus PI3Kalpha” value in assay [2] was greater than 10.
For `CCn1c(-c2cnc(C)nc2)nc2c(N[C@H]3CCN(C(=O)N4CCC(C)(C)C4)C3)ncnc21` [Compound 12-11, N-{(3S)-1-[(3,3-dimethylpyrrolidin-1-yl)carbonyl]pyrrolidin-3-yl}-9-ethyl-8-(2-methylpyrimidin-5-yl)-9H-purin-6-amine] the same measures were less than 1 nM and greater than 10.
The corresponding values for `CCn1c(CC(F)(F)F)nc2c(N[C@H]3CCN(C(=O)C4CC4)C3)ncnc21` [Compound 7-7, N-[(3S)-1-(cyclopropylcarbonyl)pyrrolidin-3-yl]-9-ethyl-8-(2,2,2-trifluoroethyl)-9H-purin-6-amine] are 770 nM and greater than 10.
The corresponding values for `CCn1c(-n2cnc(C(F)(F)F)c2)nc2c(N[C@H]3CCN(C(=O)C4CC4)C3)ncnc21` [Compound 8-3, N-[(3S)-1-(cyclopropylcarbonyl)pyrrolidin-3-yl]-9-ethyl-8-[4-(trifluoromethyl)-1H-imidazol-1-yl]-9H-purin-6-amine] are 11 nM and greater than 10.
Take `CCn1c(-c2cnc(C)nc2)nc2c(N(C)[C@H]3CCN(C(=O)[C@H]4CC[C@@H](O)CC4)C3)ncnc21` [Compound 2-100, cis-4-{[(3S)-3-{[9-ethyl-8-(2-methylpyrimidin-5-yl)-9H-purin-6-yl](methyl)amino}pyrrolidin-1-yl]carbonyl}cyclohexanol]: the IC50 in assay [1] worked out at 6.3 nM. Moreover, the “Selectivity versus PI3Kalpha” value in assay [2] was greater than 10.
